# Read-outs that look alike come from different tables or passages of the source. *1 amine or outer side, *2 acyl side, *3 side chain or, on linkers, in order; H or OH if unused. Where a SMILES comes first, the peptide text is derived from it. Side-chain parts run from the residue outwards. [ ]: non-standard residue; d: D form. The star is where a group is joined. C20 diacid = O=C(O)CCCCCCCCCCCCCCCCCCC(=O)*; γGlu = O=C(O)[C@H](CCC(=O)[*:2])N[*:1]; εLys = N[C@@H](CCCCN[*:1])C(=O)[*:2]; AEEA = NCCOCCOCC(=O)O; Aib = CC(C)(N)C(=O)O
# Columns and labels:
# human GIP receptor = target: T1, human GIP receptor (Homo sapiens, UniProt P48546); assay: In vitro functional potency (CRE luciferase; whole cells), human GIPR; assay type: cell-based; settings: BHK CRE luc2P hGIPR whole cells; Table 2; read-out: hGIPR CRE Luc EC50
# T1 construct: expressed in transfected cells; host or cells: BHK cells (parent line BHKTS13) containing CRE luciferase
# T1 sequence (P48546 22-466): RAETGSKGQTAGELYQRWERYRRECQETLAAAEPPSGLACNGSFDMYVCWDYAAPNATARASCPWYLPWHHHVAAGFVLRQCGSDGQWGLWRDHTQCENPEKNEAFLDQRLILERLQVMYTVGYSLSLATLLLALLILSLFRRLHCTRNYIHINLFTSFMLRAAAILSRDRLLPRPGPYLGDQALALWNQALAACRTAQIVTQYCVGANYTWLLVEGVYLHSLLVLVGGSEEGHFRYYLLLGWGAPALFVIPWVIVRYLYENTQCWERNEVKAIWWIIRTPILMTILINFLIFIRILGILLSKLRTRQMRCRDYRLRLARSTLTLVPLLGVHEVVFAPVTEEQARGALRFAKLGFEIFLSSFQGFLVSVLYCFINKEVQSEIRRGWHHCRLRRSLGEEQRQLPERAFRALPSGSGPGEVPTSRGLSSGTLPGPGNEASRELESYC
# Description: (§1) The purpose of this example is to test the functional activity, or potency, of the compounds in vitro at the human and mouse GLP-1, GIP, and Gcg receptors. The in vitro functional potency is the measure of target receptor activation in a whole cell assay.
# (§2) In vitro functional potency was determined by measuring the response of the target receptor in a reporter gene assay in individual cell lines. The assay was performed in stably transfected BHK cell lines that expresses one of the following G-protein coupled receptors: human GLP-1 receptor, human GIP receptor, human Gcg receptor, mouse GLP-1 receptor, mouse GIP receptor, or mouse Gcg receptor; and where each cell line contains the DNA for the cAMP response element (CRE) coupled to a promoter and the gene for firefly luciferase (CRE luciferase). When the respective receptor is activated, it results in the production of cAMP, which in turn results in expression of the luciferase protein. When assay incubation is completed, luciferase substrate (luciferin) is added resulting in the enzymatic conversion of luciferin to oxyluciferin and producing bioluminescence. The luminescence is measured as the readout for the assay.
# (§3) The cells lines used in these assays were BHK cells with BHKTS13 as a parent cell line. The cell lines were derived from a clone containing the CRE luciferase element and were established by further transfection with the respective receptor to obtain the relevant cell line.
# (§4) The cells were cultured at 37° C. with 5% CO2 in Cell Culture Medium. They were aliquoted and stored in liquid nitrogen. The cells were kept in continuous culture and were seeded out the day before each assay.
# (§5) GLP-1R and GcgR Cell Culture Medium consisted of DMEM medium with 10% FBS, 500 µg/mL G418, and 300 µg/mL hygromycin. GIPR Cell Culture Medium consisted of DMEM medium with 10% FBS, 400 µg/mL G418, and 300 µg/mL hygromycin. Assay Buffer consisted of DMEM w/o phenol red, 10 mM Hepes, 1× Glutamax, 1% ovalbumin, and 0.1% Pluronic F-68.
# (§6) • 1) Cells were plated at 5000 cells/well and incubated overnight in the assay plate. • 2) Cells were washed once in DPBS. • 3) Stocks of the test compounds and reference compounds in concentrations ranging from 100-300 pM were diluted 1:150 in Assay Buffer.
# (§7) The data from the microtiter plate reader was first regressed in an Excel in order to calculate the x-axis, log scale concentrations based on the individual test compound's stock concentration and the dilutions of the assay. […] The software performs a non-linear regression (log(agonist) vs response). A minimum of two replicates was measured for each sample. The reported values are averages of the replicates.
# [1] = Pharmacokinetic study in minipigs, i.v. administration; parameters: species or system Göttingen minipigs; settings: female, Göttingen, minipig, in vivo, iv
# Description: The purpose of this example is to determine the half-life in vivo of the triple agonists as described herein after i.v. administration to minipigs, i.e. the prolongation of their time in the body and thereby their time of action. This is done in a pharmacokinetic (PK) study, where the terminal half-life of the triple agonist in question is determined. By terminal half-life is generally meant the period of time it takes to halve a certain plasma concentration, measured after the initial distribution phase.
# Female Göttingen minipigs were obtained from Ellegaard Göttingen Minipigs (Dalmose, Denmark) approximately 7-14 months of age and weighing from approximately 16-35 kg were used in the studies. The minipigs were housed individually and fed restrictedly once daily with SDS minipig diet (Special Diets Services, Essex, UK).
# After at 3 weeks of acclimatisation two permanent central venous catheters were implanted in vena cava caudalis in each animal. The animals were allowed 1 week recovery after the surgery, and were then used for repeated pharmacokinetic studies with a suitable wash-out period between successive dosings.
# The animals were fasted for approximately 18 hours before dosing and from 0 to 4 hours after dosing, but had adlibitum access to water during the whole period.
# Intravenous injections (the volume corresponding to usually 1.5-2 nmol/kg, for example 0.1 mL/kg) of the triple agonists were given through one catheter, and blood was sampled at predefined time points for up to 14 days post dosing (preferably through the other catheter). Blood samples (for example 0.8 mL) were collected in 8 mM EDTA buffer and then centrifuged at 4° C. and 1942 g for 10 minutes.
# Plasma was pipetted into Micronic tubes on dry ice and kept at −20° C. until analysed for plasma concentration of the triple agonists using ELISA, or a similar antibody-based assay, or LCMS. Individual plasma concentration-time profiles were analysed by a non-compartmental model in Phoenix WinNonLin ver. 6.4. (Pharsight Inc., Mountain View, CA, USA), and the resulting terminal half-lives (harmonic mean) determined.
# human GLP-1 receptor = target: T2, human GLP-1 receptor (Homo sapiens, UniProt P43220); assay: In vitro functional potency (CRE luciferase; whole cells), human GLP-1R; assay type: cell-based
# T2 construct: expressed in transfected cells; host or cells: BHK cells (parent line BHKTS13) containing CRE luciferase
# T2 sequence (P43220 24-463): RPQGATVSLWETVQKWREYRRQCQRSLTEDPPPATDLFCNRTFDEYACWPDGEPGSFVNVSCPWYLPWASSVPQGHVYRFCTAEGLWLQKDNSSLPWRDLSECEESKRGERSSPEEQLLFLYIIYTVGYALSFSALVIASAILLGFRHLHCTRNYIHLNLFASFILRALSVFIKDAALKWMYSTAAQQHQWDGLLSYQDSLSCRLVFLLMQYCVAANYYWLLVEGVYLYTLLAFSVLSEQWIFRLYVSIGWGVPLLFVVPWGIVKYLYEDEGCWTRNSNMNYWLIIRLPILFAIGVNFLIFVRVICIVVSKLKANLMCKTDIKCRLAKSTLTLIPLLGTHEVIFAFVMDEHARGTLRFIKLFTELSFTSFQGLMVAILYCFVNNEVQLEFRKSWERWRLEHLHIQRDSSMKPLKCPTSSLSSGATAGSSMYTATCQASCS
# Description: as §1, §2, §3, §4, §5, §6, §7
# [2] = Pharmacodynamic study in DIO mice, daily s.c. dosing over 13 days (body weight, food intake); assay type: in vivo, C57BL/6J male mice; settings: for Absolute BW (grams) Day 0: Day 0 (baseline); for Cumulative food intake (grams) Day 13: mean ± SEM, n = 2
# Description: The purpose of this example is to assess the in vivo effect of selected triple agonists on pharmacodynamic parameters in diet-induced obese (DIO) mice. The animals were treated once daily via subcutaneous injection with a liquid formulation of the triple agonist to be tested to assess effects on body weight, foot intake, and glucose tolerance.
# C57BL/6J male mice were purchased from Jackson Laboratories at approximately 8 weeks of age. Mice were group housed and fed a high-fat, high-sugar diet from Research Diets (D12331). Mice were maintained on this diet for 12 weeks prior to initializing the pharmacology studies. Mice exceeding a measured body weight of 50 grams were considered diet-induced obese (DIO) and included in pharmacology studies. Mice were exposed to a controlled 12 h:12 h light:dark cycle at ambient room temperature (22° C.) with ab libitum access to food and water. Studies were approved by and performed according to the guidelines of the Institutional Animal Care and Use Committee of the University of Cincinnati.
# All compounds in the study were formulated in the following buffer: 50 mM phosphate; 70 mM sodium chloride; 0.05% Tween-80, pH 7.4. Dosing solutions were formulated in glass vials and stored at 2-8° C. Dosing solutions were brought to room temperature before dosing and returned to 2-8° C. after dosing.
# The animals were grouped to receive treatment as follows: Vehicle or GLP-1/GIP/Gcg receptor triple agonists as described herein, where vehicle is 50 mM phosphate, 70 mM sodium chloride; 0.05% (v/v) Tween-80, pH 7.4. The test compounds were dissolved in the vehicle, to stock concentrations of […], then diluted 50- to 200-fold in the vehicle to achieve the desired dosing solution concentrations. Animals were dosed subcutaneously once daily in the morning for each day of treatment with dosing solution at a volume of 2-5 μL per gram of body weight as necessary to achieve the desired dose (e.g. 0.3 nmol/kg, 1.0 nmol/kg, or 3.0 nmol/kg).
# Body weight (BW) and food intake were measured immediately prior to dosing each day. The percent change in body was calculated individually for each mouse based on initial body weight prior to the first injection.
# [3] = BHK CRE luc2P hGLP-1R whole cells, Table 2, read-out: hGLP-1R CRE Luc EC50
# [4] = daily s.c. dosing over 13 days, compared to vehicle
smiles,measurement,setting,value
CC[C@H](C)[C@H](NC(=O)[C@H](CO)NC(=O)[C@H](Cc1ccc(O)cc1)NC(=O)[C@H](CC(=O)O)NC(=O)[C@H](CO)NC(=O)[C@@H](NC(=O)[C@H](Cc1ccccc1)NC(=O)[C@@H](NC(=O)CNC(=O)[C@H](Cc1c[nH]cn1)NC(=O)C(C)(C)NC(=O)[C@@H](N)Cc1c[nH]cn1)[C@@H](C)O)[C@@H](C)O)C(=O)N[C@@H](CC(C)C)C(=O)N[C@@H](CC(C)C)C(=O)N[C@@H](CCC(=O)O)C(=O)N[C@@H](CCCCNC(=O)[C@@H](N)CCCCNC(=O)[C@@H](N)CCCCNC(=O)CC[C@H](NC(=O)CCCCCCCCCCCCCCCCCCC(=O)O)C(=O)O)C(=O)N[C@@H](CCC(N)=O)C(=O)N[C@@H](C)C(=O)N[C@@H](C)C(=O)N[C@@H](CCC(N)=O)C(=O)N[C@@H](CCC(=O)O)C(=O)N[C@@H](Cc1ccccc1)C(=O)N[C@H](C(=O)N[C@@H](CCC(N)=O)C(=O)N[C@@H](Cc1c[nH]c2ccccc12)C(=O)N[C@@H](CC(C)C)C(=O)N[C@@H](CC(C)C)C(=O)N[C@@H](CCC(=O)O)C(=O)NCC(=O)NCC(=O)N1CCC[C@H]1C(=O)N[C@@H](CO)C(=O)N[C@@H](CO)C(=O)NCC(=O)N[C@@H](C)C(=O)N1CCC[C@H]1C(=O)N1CCC[C@H]1C(=O)N1CCC[C@H]1C(=O)N[C@@H](CO)C(=O)O)C(C)C [Compound No. 53] (H-H[Aib]HGTFTSDYSILLEK([εLys-εLys-γGlu-C20 diacid])QAAQEFVQWLLEGGPSSGAPPPS-OH),EC50,human GIP receptor,4.8 pM
CC(C)C[C@H](NC(=O)[C@H](CC(C)C)NC(=O)[C@H](Cc1c[nH]c2ccccc12)NC(=O)[C@H](CCC(N)=O)NC(=O)[C@@H](NC(=O)[C@H](Cc1ccccc1)NC(=O)[C@H](CCC(=O)O)NC(=O)C(C)(C)NC(=O)[C@H](C)NC(=O)[C@H](C)NC(=O)[C@H](CCCCN)NC(=O)[C@H](CCCCNC(=O)[C@@H](N)CCCCNC(=O)[C@@H](N)CCCCNC(=O)CC[C@H](NC(=O)CCCCCCCCCCCCCCCCCCC(=O)O)C(=O)O)NC(=O)[C@H](CCC(=O)O)NC(=O)[C@H](CC(C)C)NC(=O)[C@H](Cc1ccc(O)cc1)NC(=O)[C@H](Cc1ccc(O)cc1)NC(=O)[C@H](CO)NC(=O)[C@H](Cc1ccc(O)cc1)NC(=O)[C@H](CC(=O)O)NC(=O)[C@H](CO)NC(=O)[C@@H](NC(=O)[C@H](Cc1ccccc1)NC(=O)[C@@H](NC(=O)CNC(=O)[C@H](Cc1c[nH]cn1)NC(=O)C(C)(C)NC(=O)[C@@H](N)Cc1c[nH]cn1)[C@@H](C)O)[C@@H](C)O)C(C)C)C(=O)N[C@@H](CCC(=O)O)C(=O)NCC(=O)NCC(=O)N1CCC[C@H]1C(=O)N[C@@H](CO)C(=O)N[C@@H](CO)C(=O)NCC(=O)N[C@@H](C)C(=O)N1CCC[C@H]1C(=O)N1CCC[C@H]1C(=O)N1CCC[C@H]1C(=O)N[C@@H](CO)C(N)=O [Compound No. 31] (H-H[Aib]HGTFTSDYSYYLEK([εLys-εLys-γGlu-C20 diacid])KAA[Aib]EFVQWLLEGGPSSGAPPPS-NH2; N-terminus assumed),half-life,[1],55 h
same,EC50,human GLP-1 receptor; [3],3 pM
CC[C@H](C)[C@H](NC(=O)[C@H](CO)NC(=O)[C@H](Cc1ccc(O)cc1)NC(=O)[C@H](CC(=O)O)NC(=O)[C@H](CO)NC(=O)[C@@H](NC(=O)[C@H](Cc1ccccc1)NC(=O)[C@@H](NC(=O)CNC(=O)[C@H](Cc1c[nH]cn1)NC(=O)C(C)(C)NC(=O)[C@@H](N)Cc1c[nH]cn1)[C@@H](C)O)[C@@H](C)O)C(=O)N[C@@H](CC(C)C)C(=O)N[C@@H](CC(C)C)C(=O)N[C@@H](CCC(=O)O)C(=O)N[C@@H](CCCCNC(=O)[C@@H](N)CCCCNC(=O)[C@@H](N)CCCCNC(=O)CC[C@H](NC(=O)CCCCCCCCCCCCCCCCCCC(=O)O)C(=O)O)C(=O)N[C@@H](CCC(N)=O)C(=O)N[C@@H](C)C(=O)N[C@@H](C)C(=O)NC(C)(C)C(=O)N[C@@H](CCC(=O)O)C(=O)N[C@@H](Cc1ccccc1)C(=O)N[C@H](C(=O)N[C@@H](CCC(N)=O)C(=O)N[C@@H](Cc1c[nH]c2ccccc12)C(=O)N[C@@H](CC(C)C)C(=O)N[C@@H](CC(C)C)C(=O)N[C@@H](CCC(=O)O)C(=O)NCC(=O)NCC(=O)N1CCC[C@H]1C(=O)N[C@@H](CO)C(=O)N[C@@H](CO)C(=O)NCC(=O)N[C@@H](C)C(=O)N1CCC[C@H]1C(=O)N1CCC[C@H]1C(=O)N1CCC[C@H]1C(=O)N[C@@H](CO)C(N)=O)C(C)C [Compound No. 43] (H-H[Aib]HGTFTSDYSILLEK([εLys-εLys-γGlu-C20 diacid])QAA[Aib]EFVQWLLEGGPSSGAPPPS-NH2),half-life,"[1]; minipigs, i.v. administration, harmonic mean, read-out: Terminal half-life t1/2 (converted)",71 h
same,Absolute BW (grams) Day 0,[2]; 1.0 nmol/kg group,60.4 ± 1.0 grams
same,Absolute BW (grams) Day 13,[2]; 1.0 nmol/kg s.c. once daily,48.7 ± 1.4 grams
same,Change in BW (%) Day 13,[2]; 1.0 nmol/kg s.c. once daily,−19.4 ± 1.5%
same,Cumulative food intake (grams) Day 13,[2]; 1.0 nmol/kg s.c. once daily,21.1 ± 3.3 grams
same,Absolute BW (grams) Day 0,[2]; 3.0 nmol/kg group,60.1 ± 1.9 grams
same,Absolute BW (grams) Day 13,[2]; 3.0 nmol/kg s.c. once daily,36.3 ± 1.0 grams
same,Change in BW (%) Day 13,[2]; 3.0 nmol/kg s.c. once daily,−39.5 ± 1.3%
same,Cumulative food intake (grams) Day 13,[2]; 3.0 nmol/kg s.c. once daily,11.5 ± 2.4 grams
same,reduction in body weight (in words),[2]; [4],superior reduction
same,reduction in food intake (in words),[2]; [4],superior reduction
same,EC50,human GLP-1 receptor,3 pM
CC[C@H](C)[C@H](NC(=O)[C@H](CO)NC(=O)[C@H](Cc1ccc(O)cc1)NC(=O)[C@H](CC(=O)O)NC(=O)[C@H](CO)NC(=O)[C@@H](NC(=O)[C@H](Cc1ccccc1)NC(=O)[C@@H](NC(=O)CNC(=O)[C@H](Cc1c[nH]cn1)NC(=O)C(C)(C)NC(=O)[C@@H](N)Cc1c[nH]cn1)[C@@H](C)O)[C@@H](C)O)C(=O)N[C@@H](Cc1ccc(O)cc1)C(=O)N[C@@H](CC(C)C)C(=O)N[C@@H](CCC(=O)O)C(=O)N[C@@H](CCCCNC(=O)COCCOCCNC(=O)COCCOCCNC(=O)CC[C@H](NC(=O)CCCCCCCCCCCCCCCCCCC(=O)O)C(=O)O)C(=O)N[C@@H](CCCCN)C(=O)N[C@@H](Cc1ccc(O)cc1)C(=O)N[C@@H](C)C(=O)NC(C)(C)C(=O)N[C@@H](CCC(=O)O)C(=O)N[C@@H](Cc1ccccc1)C(=O)N[C@H](C(=O)N[C@@H](CCC(N)=O)C(=O)N[C@@H](Cc1c[nH]c2ccccc12)C(=O)N[C@@H](CC(C)C)C(=O)N[C@@H](CC(C)C)C(=O)N[C@@H](CCC(=O)O)C(=O)NCC(=O)NCC(=O)N1CCC[C@H]1C(=O)N[C@@H](CO)C(=O)N[C@@H](CO)C(=O)NCC(=O)N[C@@H](C)C(=O)N1CCC[C@H]1C(=O)N1CCC[C@H]1C(=O)N1CCC[C@H]1C(=O)N[C@@H](CO)C(N)=O)C(C)C [Compound No. 39] (H-H[Aib]HGTFTSDYSIYLEK([AEEA-AEEA-γGlu-C20 diacid])KYA[Aib]EFVQWLLEGGPSSGAPPPS-NH2),half-life,[1],66 h
same,EC50,human GLP-1 receptor; [3],4.4 pM

# From patent US20230391845A1, “GLP-1, GIP AND GLUCAGON RECEPTOR TRIPLE AGONISTS” (priority 2020, published 2023)
